Structures can show the parent of a compound that is named as a salt. Marks after values point to notes of the source that are not given here.
Assays:
[1] = tested on: fronto-occipital cortex of the cat; assay: Quantitative EEG, fronto-occipital cat cortex, subcutaneous administration; type: in vivo, cats; details: for group percent change in electrical energy from pre-drug control, Δ band / mean change ± S.E. in electrical energy from pre-drug control, Δ band / group percent change in electrical energy from pre-drug control, α band / mean change ± S.E. in electrical energy from pre-drug control, α band / group percent change in electrical energy from pre-drug control, β band / mean change ± S.E. in electrical energy from pre-drug control, β band / group percent change in electrical energy from pre-drug control, γ band / mean change ± S.E. in electrical energy from pre-drug control, γ band / group percent change in electrical energy from pre-drug control, θ band / mean change ± S.E. in electrical energy from pre-drug control, θ band: fronto-occipital cat cortex; for group percent change in electrical energy from pre-drug control, Δ band / mean change ± S.E. in electrical energy from pre-drug control, Δ band: Δ = 0.05-35 Hz; for group percent change in electrical energy from pre-drug control, α band / mean change ± S.E. in electrical energy from pre-drug control, α band: α= 7-13 Hz; for group percent change in electrical energy from pre-drug control, β band / mean change ± S.E. in electrical energy from pre-drug control, β band: β= 13-25 Hz; for group percent change in electrical energy from pre-drug control, γ band / mean change ± S.E. in electrical energy from pre-drug control, γ band: γ= 25-40 Hz; for group percent change in electrical energy from pre-drug control, θ band / mean change ± S.E. in electrical energy from pre-drug control, θ band: θ= 3.5-7.0 Hz
Description: This unique combination of activity may render buspirone useful in the treatment of childhood hyperkinesis which has been reported to respond to both selected phenothiazine and stimulant drugs. • (b) Adult mongrel female cats weighing 2.5-4.0 kg were implanted with EEG recording electrodes. Recording sites were as follows: fronto-occipital cortex, basal amygdala and ventral hippocampus.
Animals were individually held in canvas feline restraining bags for EEG recording. The EEG of each brain area was recorded on a separate channel. The instrumentation filtered each channel of EEG and analog data into five distinct frequency bands: Δ=0.5-3.5 Hz, ϑ=3.5-7.0 Hz, α=7-13 Hz, β=13-25 Hz and γ=25-40 Hz. The EEG analyzer then integrated the filtered waveforms and sent pulses to an associated computer at a rate proportional to the electrical energy of each band. Data collecting procedures were essentially the same as reported in Example 1. However, groups of six animals each were used and all drugs were administered subcutaneously in saline solution as their respective salts, but all dosages were calculated as the free base. Recording was started 30 minutes after injection to insure adequate drug absorption for peak activity.
Drug-induced EEG changes were determined by comparing the post-treatment data to the pre-treatment control in the same animal. Statistical analysis was performed on change from control, in instrument counts, using multiple Student-t-paired-comparison test with P≦0.05 (Table 2). However, for clarity data are also presented as percent change from control (Figures 3, 4 and 5).
The data in Table 2 are drug-induced changes resulting from the minimum and higher doses of each compound required to elicit the EEG profile characteristic of that particular drug.

rabbit cortex = assay: Quantitative EEG, rabbit cortex, intravenous administration; type: in vivo, rabbits; details: for group percent change in electrical energy from pre-drug control, Δ band / mean change ± S.E. in electrical energy from pre-drug control, Δ band / group percent change in electrical energy from pre-drug control, α band / mean change ± S.E. in electrical energy from pre-drug control, α band / group percent change in electrical energy from pre-drug control, β band / mean change ± S.E. in electrical energy from pre-drug control, β band / group percent change in electrical energy from pre-drug control, γ band / mean change ± S.E. in electrical energy from pre-drug control, γ band / group percent change in electrical energy from pre-drug control, θ band / mean change ± S.E. in electrical energy from pre-drug control, θ band: rabbit cortex; for group percent change in electrical energy from pre-drug control, Δ band / mean change ± S.E. in electrical energy from pre-drug control, Δ band: Δ = 0.5-3.5 Hz; for group percent change in electrical energy from pre-drug control, α band / mean change ± S.E. in electrical energy from pre-drug control, α band: α= 7-13 Hz; for group percent change in electrical energy from pre-drug control, β band / mean change ± S.E. in electrical energy from pre-drug control, β band: β= 13-25 Hz; for group percent change in electrical energy from pre-drug control, γ band / mean change ± S.E. in electrical energy from pre-drug control, γ band: γ= 25-40 Hz; for group percent change in electrical energy from pre-drug control, θ band / mean change ± S.E. in electrical energy from pre-drug control, θ band: θ= 3.5-7.0 Hz
Experimental: At least 2 weeks were allowed for recovery before beginning experimentation.
Groups of four animals each were individually restrained and connected to an EEG amplifier and frequency analyzer. The EEG of each animal was recorded on a separate channel. The instrumentation filtered each channel of EEG analog data into five distinct frequency bands: Δ=0.5-3.5 Hz, ϑ=3.5-7.0 Hz, α=7-13 Hz, β=13-25 Hz and γ=25-40 Hz. The EEG analyzer then integrated the filtered waveforms and sent pulses to an associated computer at a rate proportional to the electrical energy of each band. Thus, one computer print-out provided a cortical EEG profile for the entire group of four rabbits.
Data from a one-hour recording period were collected in four 15-minute periods, which provided additional information concerning both onset and time of peak effect of drug activity. However, in this report only the mean activity of the four data collection periods was considered since onset of drug activity was immediate and duration of action was at least one hour for all drugs studied. Drug-induced EEG changes were determined by comparing the post-treatment print-out to the pretreatment control in the same animal and statistical analysis was performed on change from control, in counts, using multiple Student-t paired-comparison tests with p≦0.05 (Table 1). However, for clarity data are also presented as percent change from control (Figures 1 and 2).
All drugs were administered intravenously in saline solution as their respective salts and all dosage calculations were based on the free base. Recording was started immediately after injection and animals were not used more often than once per week. Initial doses were reduced geometrically until a no-effect dose was determined for each drug. However, only the "no-effect" data and the data generated from the next higher dose are presented in this report since the shape of the EEG profile is not dose-related, as opposed to the magnitude of the response which is dose-related.

COC(=O)C(c1ccccc1)C1CCCCN1 (stereo not drawn) [Methylphenidate HCl, methylphenidate]
minimal effective dose ([1]; Felis catus, sc, read-out: the minimum dose required to produce the EEG profile characteristic of that particular drug): 0.25 mg/kg | relative potency by comparing minimal doses required to elicit EEG profiles ([1]; cat cortex EEG, s.c.): equal potency | the no-effect dose ([1]; fronto-occipital cat cortex EEG, dose of free base): 0.125† mg/kg, s.c. | group percent change in electrical energy from pre-drug control, Δ band ([1]; 0.125 mg/kg free base s.c.): -22% | mean change ± S.E. in electrical energy from pre-drug control, Δ band ([1]; 0.125 mg/kg free base s.c.): -44 ± 18 instrument counts | group percent change in electrical energy from pre-drug control, Δ band ([1]; 0.25 mg/kg free base s.c.): -14% | mean change ± S.E. in electrical energy from pre-drug control, Δ band ([1]; 0.25 mg/kg free base s.c.): -31 ± 18 instrument counts | group percent change in electrical energy from pre-drug control, Δ band ([1]; 1.0 mg/kg free base s.c.): -2% | mean change ± S.E. in electrical energy from pre-drug control, Δ band ([1]; 1.0 mg/kg free base s.c.): -4 ± 30 instrument counts | group percent change in electrical energy from pre-drug control, Δ band ([1]; 4.0 mg/kg free base s.c.): -8% | mean change ± S.E. in electrical energy from pre-drug control, Δ band ([1]; 4.0 mg/kg free base s.c.): -16 ± 45 instrument counts | group percent change in electrical energy from pre-drug control, α band ([1]; 0.125 mg/kg free base s.c.): -18% | mean change ± S.E. in electrical energy from pre-drug control, α band ([1]; 0.125 mg/kg free base s.c.): -24 ± 10 instrument counts | group percent change in electrical energy from pre-drug control, α band ([1]; 0.25 mg/kg free base s.c.): -31% | mean change ± S.E. in electrical energy from pre-drug control, α band ([1]; 0.25 mg/kg free base s.c.): -39 ± 12 instrument counts | group percent change in electrical energy from pre-drug control, α band ([1]; 1.0 mg/kg free base s.c.): -46% | mean change ± S.E. in electrical energy from pre-drug control, α band ([1]; 1.0 mg/kg free base s.c.): -52 ± 14 instrument counts | group percent change in electrical energy from pre-drug control, α band ([1]; 4.0 mg/kg free base s.c.): -51% | mean change ± S.E. in electrical energy from pre-drug control, α band ([1]; 4.0 mg/kg free base s.c.): -63 ± 11 instrument counts | group percent change in electrical energy from pre-drug control, β band ([1]; 0.125 mg/kg free base s.c.): -2% | mean change ± S.E. in electrical energy from pre-drug control, β band ([1]; 0.125 mg/kg free base s.c.): -3 ± 5 instrument counts | group percent change in electrical energy from pre-drug control, β band ([1]; 0.25 mg/kg free base s.c.): -9% | mean change ± S.E. in electrical energy from pre-drug control, β band ([1]; 0.25 mg/kg free base s.c.): -11 ± 4 instrument counts | group percent change in electrical energy from pre-drug control, β band ([1]; 1.0 mg/kg free base s.c.): -19% | mean change ± S.E. in electrical energy from pre-drug control, β band ([1]; 1.0 mg/kg free base s.c.): -20 ± 5 instrument counts | group percent change in electrical energy from pre-drug control, β band ([1]; 4.0 mg/kg free base s.c.): -12% | mean change ± S.E. in electrical energy from pre-drug control, β band ([1]; 4.0 mg/kg free base s.c.): -14 ± 4 instrument counts | group percent change in electrical energy from pre-drug control, γ band ([1]; 0.125 mg/kg free base s.c.): +7% | mean change ± S.E. in electrical energy from pre-drug control, γ band ([1]; 0.125 mg/kg free base s.c.): +6 ± 2 instrument counts | group percent change in electrical energy from pre-drug control, γ band ([1]; 0.25 mg/kg free base s.c.): +9% | mean change ± S.E. in electrical energy from pre-drug control, γ band ([1]; 0.25 mg/kg free base s.c.): +7 ± 2 instrument counts | group percent change in electrical energy from pre-drug control, γ band ([1]; 1.0 mg/kg free base s.c.): +13% | mean change ± S.E. in electrical energy from pre-drug control, γ band ([1]; 1.0 mg/kg free base s.c.): +10 ± 3 instrument counts | group percent change in electrical energy from pre-drug control, γ band ([1]; 4.0 mg/kg free base s.c.): +35% | mean change ± S.E. in electrical energy from pre-drug control, γ band ([1]; 4.0 mg/kg free base s.c.): +25 ± 5 instrument counts | group percent change in electrical energy from pre-drug control, θ band ([1]; 0.125 mg/kg free base s.c.): -20% | mean change ± S.E. in electrical energy from pre-drug control, θ band ([1]; 0.125 mg/kg free base s.c.): -31 ± 11 instrument counts | group percent change in electrical energy from pre-drug control, θ band ([1]; 0.25 mg/kg free base s.c.): -27% | mean change ± S.E. in electrical energy from pre-drug control, θ band ([1]; 0.25 mg/kg free base s.c.): -38 ± 16 instrument counts | group percent change in electrical energy from pre-drug control, θ band ([1]; 1.0 mg/kg free base s.c.): -34% | mean change ± S.E. in electrical energy from pre-drug control, θ band ([1]; 1.0 mg/kg free base s.c.): -45 ± 17 instrument counts | group percent change in electrical energy from pre-drug control, θ band ([1]; 4.0 mg/kg free base s.c.): -41% | mean change ± S.E. in electrical energy from pre-drug control, θ band ([1]; 4.0 mg/kg free base s.c.): -56 ± 14 instrument counts | minimal effective dose (rabbit cortex; Oryctolagus cuniculus, iv, read-out: the minimum dose required to produce the EEG profile characteristic of that particular drug): 0.125 mg/kg | relative potency by comparing minimal doses required to elicit EEG profiles (rabbit cortex; rabbit cortex EEG, i.v.): approximately four times more potent than buspirone | the no-effect dose (rabbit cortex; rabbit cortex EEG, dose of free base): 0.0625† mg/kg, i.v. | group percent change in electrical energy from pre-drug control, Δ band (rabbit cortex; 0.0625 mg/kg free base i.v.): +3% | mean change ± S.E. in electrical energy from pre-drug control, Δ band (rabbit cortex; 0.0625 mg/kg free base i.v.): +7 ± 19 instrument counts | group percent change in electrical energy from pre-drug control, Δ band (rabbit cortex; 0.125 mg/kg free base i.v.): -36% | mean change ± S.E. in electrical energy from pre-drug control, Δ band (rabbit cortex; 0.125 mg/kg free base i.v.): -120 ± 36 instrument counts | group percent change in electrical energy from pre-drug control, α band (rabbit cortex; 0.0625 mg/kg free base i.v.): +6% | mean change ± S.E. in electrical energy from pre-drug control, α band (rabbit cortex; 0.0625 mg/kg free base i.v.): +8 ± 10 instrument counts | group percent change in electrical energy from pre-drug control, α band (rabbit cortex; 0.125 mg/kg free base i.v.): -23% | mean change ± S.E. in electrical energy from pre-drug control, α band (rabbit cortex; 0.125 mg/kg free base i.v.): -47 ± 16 instrument counts | group percent change in electrical energy from pre-drug control, β band (rabbit cortex; 0.0625 mg/kg free base i.v.): +4% | mean change ± S.E. in electrical energy from pre-drug control, β band (rabbit cortex; 0.0625 mg/kg free base i.v.): +4 ± 6 instrument counts | group percent change in electrical energy from pre-drug control, β band (rabbit cortex; 0.125 mg/kg free base i.v.): -22% | mean change ± S.E. in electrical energy from pre-drug control, β band (rabbit cortex; 0.125 mg/kg free base i.v.): -35 ± 6 instrument counts | group percent change in electrical energy from pre-drug control, γ band (rabbit cortex; 0.0625 mg/kg free base i.v.): -1% | mean change ± S.E. in electrical energy from pre-drug control, γ band (rabbit cortex; 0.0625 mg/kg free base i.v.): -1 ± 2 instrument counts | group percent change in electrical energy from pre-drug control, γ band (rabbit cortex; 0.125 mg/kg free base i.v.): -7% | mean change ± S.E. in electrical energy from pre-drug control, γ band (rabbit cortex; 0.125 mg/kg free base i.v.): -9 ± 2 instrument counts | group percent change in electrical energy from pre-drug control, θ band (rabbit cortex; 0.0625 mg/kg free base i.v.): +6% | mean change ± S.E. in electrical energy from pre-drug control, θ band (rabbit cortex; 0.0625 mg/kg free base i.v.): +3 ± 9 instrument counts | group percent change in electrical energy from pre-drug control, θ band (rabbit cortex; 0.125 mg/kg free base i.v.): -24% | mean change ± S.E. in electrical energy from pre-drug control, θ band (rabbit cortex; 0.125 mg/kg free base i.v.): -60 ± 16 instrument counts
